Data published in PMC7580834, “Inhibition mechanism of naphthylphenylamine derivatives acting on the CDC25B dual phosphatase and analysis of the molecular processes involved in the high cytotoxicity exerted by one selected derivative in melanoma cells” (Journal of Enzyme Inhibition and Medicinal Chemistry, 2020).

Legend:
[1] = tested on: A375 cells; test: Western blotting of total cell extracts (CDC25A, -B, -C, p53, pAkt); assay type: cell-based, human; conditions: 10 µM
Description: (§1) To obtain the total protein extract, cells were seeded into 6-well-plates (3 × 10^5 cells/plate) for 24 h at 37 °C and then treated with 4a or 0.5% (v/v) DMSO. After treatment, cells were harvested, washed with PBS, and then lysed in ice-cold modified radio immunoprecipitation assay (RIPA) buffer (50 mM Tris•HCl, pH 7.4, 150 mM NaCl, 1% Nonidet P-40, 0.25% sodium deoxycholate, 1 mM Na3VO4 and 1 mM NaF), supplemented with protease inhibitors and incubated for 30 min on ice. The supernatant, obtained after centrifugation at 13200 g for 30 min at 4 °C, constituted the total protein extract. Protein concentration was determined by the Bradford method, using bovine serum albumin (BSA) as standard. To obtain the cytosolic and mitochondrial fractions, cells were plated at a density of 2 × 10^6 cells/plate for 24 h at 37 °C. After the treatment with 4a or 0.5% (v/v) DMSO, cells were harvested, washed in PBS, and then resuspended in buffer A (5 mM Hepes, pH 7.4, 250 mM mannitol, 0.5 mM EGTA, 0.1% BSA), supplemented with protease inhibitors, and homogenised. The homogenate was centrifuged at 600 g for 5 min at 4 °C and the supernatant was then centrifuged at 10300 g for 10 min at 4 °C. The resulting supernatant represented the cytosolic fraction, whereas the pellet, constituting the mitochondrial fraction was resuspended in RIPA buffer. Protein concentration was determined as previously indicated. Equal amounts of total, cytosolic or mitocondrial protein extracts were used for Western blotting analysis. Briefly, protein samples were dissolved in SDS-reducing loading buffer, run on sodium dodecylsulfate polyacrylamide gel electrophoresis (SDS/PAGE), and then transferred to Immobilon P membrane (Millipore, Saint Louis, MO, USA). The filter was incubated with the specific primary antibody at 4 °C overnight and then with the secondary antibody at room temperature for 1 h. Membranes were then analysed by an enhanced chemiluminescence reaction using WesternBright ECL (Advansta, San Jose, CA, USA) according to manufacturer’s instructions; signals were visualised by autoradiography. The analysis of pAkt protein levels was performed as previously described. Briefly, filters were first incubated with the anti-pAkt primary antibody and then with the secondary antibody and membranes were analysed by an enhanced chemiluminescence reaction as previously indicated. The same filters were then stripped, using AbCam (Cambridge, UK) stripping solution, pH 2 (200 mM glycine, 3.5 mM SDS, 1% Tween-20) at 45 °C for 30 min, washed 3 times with PBS-Tween 0.1%, incubated with anti-Akt primary antibody and then with the relative secondary antibody. Signals were detected as previously specified.

[2] = tested on: A2058 cells; test: as above; assay type: cell-based, human; conditions: 10 µM
Description: as §1

[3] = target: T1, CDC25B (Homo sapiens, UniProt P30305); test: Kinetic studies of CDC25B phosphatase inhibition (OMFP substrate); assay type: biochemical; conditions: putative from Lineweaver-Burk plots (ref 18), confirmed by the fluorescence studies of this work
T1 sequence (P30305 1-580): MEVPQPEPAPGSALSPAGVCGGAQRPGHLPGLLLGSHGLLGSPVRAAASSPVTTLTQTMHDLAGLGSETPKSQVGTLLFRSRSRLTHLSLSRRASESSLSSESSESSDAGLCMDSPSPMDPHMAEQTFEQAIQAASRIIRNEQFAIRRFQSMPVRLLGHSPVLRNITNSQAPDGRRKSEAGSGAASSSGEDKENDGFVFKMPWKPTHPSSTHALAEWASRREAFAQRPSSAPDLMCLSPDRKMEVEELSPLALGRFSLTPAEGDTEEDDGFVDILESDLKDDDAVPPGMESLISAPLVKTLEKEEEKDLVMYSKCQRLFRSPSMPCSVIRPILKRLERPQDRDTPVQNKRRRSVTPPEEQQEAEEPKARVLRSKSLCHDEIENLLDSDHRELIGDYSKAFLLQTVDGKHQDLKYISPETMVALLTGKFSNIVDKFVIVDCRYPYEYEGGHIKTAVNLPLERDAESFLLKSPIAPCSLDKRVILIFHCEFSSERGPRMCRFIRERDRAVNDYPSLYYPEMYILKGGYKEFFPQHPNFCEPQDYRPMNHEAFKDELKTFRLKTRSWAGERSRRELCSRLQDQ

## CCOC(=O)c1cccc(Nc2cc(OC)cc3ccccc23)c1 [4a]
[1]; 16- and 24-h
  p53 protein levels: clear and significant increase
[1]; 30-min
  pAkt protein levels: significant and early decrease
[1]; essentially after 24- and 48-h
  CDC25A, -B and -C protein levels: reduction of protein levels of all three forms
[2]; 16- and 24-h
  p53 protein levels: clear and significant increase
[2]; 30-min
  pAkt protein levels: significant and early decrease
[2]; essentially after 24- and 48-h
  CDC25A, -B and -C protein levels: reduction of protein levels of all three forms
[3]
  Inhibition mechanism: uncompetitive
